In brackets after ≈: the same amount, converted by molar mass.
Key:
[1] = system: Pseudomonas aeruginosa (P. aeruginosa) 27853; experiment: Antibacterial activity, MIC (Table 5); type: cell-based; conditions: P. aeruginosa 27853, read-out: MIC, 27853
Excerpt: (§1) The antibacterial activity from a microbroth dilution method may be presented as the minimum inhibitory concentration (MIC in μg/mL). The MIC value is the lowest concentration of drug which prevents macroscopically visible growth under test conditions.
Antibacterial activity of test compounds against the Gram-negative bacterium Pseudomonas aeruginosa (P. aeruginosa) 27853 is shown in Table 5.

E. coli 25922 = experiment: Antibacterial activity, microbroth dilution MIC (Table 1); type: cell-based, Escherichia coli; conditions: Escherichia coli; microbroth dilution; control Gram-negative E. coli 25922 strain; read-out: MIC, 25922
How it was run: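 Using broth microdilution, MIC endpoints (μg/mL) mark where visible growth no longer appears; the panel spans sensitive and control Gram-negative strains plus a Gram-positive strain.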

A. baumannii MXX2240 = experiment: Antibacterial activity, MIC, resistant strain (Table 4); type: cell-based; conditions: Acinetobacter baumannii, MXX2240; resistant A. baumannii MMX2240, multi-drug resistant clinical isolate; read-out: MIC, MMX2240
Excerpt: as §1
(§2) Antibacterial activity of test compounds against the Gram-negative Acinetobacter baumannii (A. baumannii) BAA747 and Klebsiella pneumoniae (K. pneumoniae) 35657 bacterium and the resistant A. baumannii MXX2240 and K. pneumoniae MXX1232 strains are shown in Table 4. The MMX strains are multi-drug resistant clinical isolates.

K. pneumoniae MXX1232 = experiment: as above; type: cell-based; conditions: Klebsiella pneumoniae, MXX1232; resistant K. pneumoniae MMX1232, multi-drug resistant clinical isolate; read-out: MIC, MMX1232
Excerpt: as §1, §2

[2] = system: Staphylococcus aureus (S. aureus) 29213; experiment: Antibacterial activity, microbroth dilution MIC (Table 1); type: cell-based; conditions: microbroth dilution, Gram-positive S. aureus 29213, read-out: MIC, 29213
How it was run: (§3)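 Values are MICs (μg/mL): the smallest drug amount at which macroscopically visible bacterial growth is absent under assay conditions, from a microdilution method in broth.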

[3] = system: Escherichia coli (E. coli) BAS849; experiment: as above; type: cell-based; conditions: microbroth dilution, super sensitive Gram-negative E. coli BAS849, read-out: MIC, BAS849
How it was run: as §3

E. coli LZ3111 = experiment: Antibacterial activity, MIC, quinolone resistant strain (Table 2); type: cell-based; conditions: Escherichia coli, LZ3111, read-out: MIC LZ3111
How it was run: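 Growth inhibition assessed by serial drug dilution in broth; endpoint was absence of macroscopically visible growth, reported as MIC, μg/mL.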

[4] = system: Acinetobacter baumannii (A. baumannii) BAA747; experiment: Antibacterial activity, MIC (Table 4); type: cell-based; conditions: A. baumannii BAA747, read-out: MIC, BAA747
Excerpt: as §1, §2

[5] = system: Klebsiella pneumoniae (K. pneumoniae) 35657; experiment: Antibacterial activity, MIC (Table 4); type: cell-based; conditions: K. pneumoniae 35657, read-out: MIC, 35657
Excerpt: as §1, §2

| SMILES | MIC [1] [µg/mL] | MIC (E. coli 25922) [µg/mL] | MIC (A. baumannii MXX2240) [µg/mL] | MIC (K. pneumoniae MXX1232) [µg/mL] | MIC [2] [µg/mL] | MIC [3] [µg/mL] | MIC (E. coli LZ3111) [µg/mL] | MIC [4] [µg/mL] | MIC [5] [µg/mL] |
| --- | --- | --- | --- | --- | --- | --- | --- | --- | --- |
| CCNCc1cc2ccc(-c3[nH]c(=O)c(C(=O)O)c(O)c3C)cc2[nH]1.Cl [Cpd 444, 6-(2-((ethylamino)methyl)-1H-indol-6-yl)-4-hydroxy-5-methyl-2-oxo-1,2-dihydropyridine-3-carboxylic acid hydrochloride] | 12.5 to 150 | 12.5 to 150 | 12.5 to 150 | 12.5 to 150 | 12.5 to 150 | 12.5 to 150 | 12.5 to 150 | 12.5 to 150 | 12.5 to 150 |
| CCc1ccc2[nH]c(-c3[nH]c(=O)c(C(=O)O)c(O)c3CC)cc2c1 [Cpd 381, 5-ethyl-6-(5-ethyl-1H-indol-2-yl)-4-hydroxy-2-oxo-1,2-dihydropyridine-3-carboxylic acid] | 12.5 to 150 (≈ 38.3 to 460 µM) | 12.5 to 150 (≈ 38.3 to 460 µM) | 12.5 to 150 (≈ 38.3 to 460 µM) | 12.5 to 150 (≈ 38.3 to 460 µM) | 3.5 to 12.5 (≈ 10.7 to 38.3 µM) | < 1 | 12.5 to 150 (≈ 38.3 to 460 µM) | 12.5 to 150 (≈ 38.3 to 460 µM) | 12.5 to 150 (≈ 38.3 to 460 µM) |
| CCc1c(-c2cc3cc(F)c(C)cc3n2C)[nH]c(=O)c(C(=O)O)c1O [Cpd 411, 5-ethyl-6-(5-fluoro-1,6-dimethyl-1H-indol-2-yl)-4-hydroxy-2-oxo-1,2-dihydropyridine-3-carboxylic acid] | 12.5 to 150 (≈ 36.3 to 436 µM) | 12.5 to 150 (≈ 36.3 to 436 µM) | 12.5 to 150 (≈ 36.3 to 436 µM) | 12.5 to 150 (≈ 36.3 to 436 µM) | 3.5 to 12.5 (≈ 10.2 to 36.3 µM) | 1 to 3.5 (≈ 2.9 to 10.2 µM) | 12.5 to 150 (≈ 36.3 to 436 µM) | 12.5 to 150 (≈ 36.3 to 436 µM) | 12.5 to 150 (≈ 36.3 to 436 µM) |
| CCc1cc(C(=O)O)c(=O)[nH]c1-c1ccc2c(c1)cc1n2CCC1N1CCCCC1 (stereo not drawn) [Cpd 154, 5-ethyl-2-oxo-6-(1-(piperidin-1-yl)-2,3-dihydro-1H-pyrrolo[1,2-a]indol-7-yl)-1,2-dihydropyridine-3-carboxylic acid] | 12.5 to 150 (≈ 30.8 to 370 µM) | 1 to 3.5 (≈ 2.47 to 8.63 µM) | 12.5 to 150 (≈ 30.8 to 370 µM) | 12.5 to 150 (≈ 30.8 to 370 µM) | 12.5 to 150 (≈ 30.8 to 370 µM) | < 1 | 12.5 to 150 (≈ 30.8 to 370 µM) | 3.5 to 12.5 (≈ 8.63 to 30.8 µM) | 1 to 3.5 (≈ 2.47 to 8.63 µM) |
| Cc1c(-c2ccc3c(c2)cc(CNCCN(C)C)n3C)[nH]c(=O)c(C(=O)O)c1O [Cpd 345, 6-(2-((2-(dimethylamino)ethylamino)methyl)-1-methyl-1H-indol-5-yl)-4-hydroxy-5-methyl-2-oxo-1,2-dihydropyridine-3-carboxylic acid] | 12.5 to 150 (≈ 31.4 to 376 µM) | 12.5 to 150 (≈ 31.4 to 376 µM) | 12.5 to 150 (≈ 31.4 to 376 µM) | 12.5 to 150 (≈ 31.4 to 376 µM) | 12.5 to 150 (≈ 31.4 to 376 µM) | 3.5 to 12.5 (≈ 8.78 to 31.4 µM) | 1 to 3.5 (≈ 2.51 to 8.78 µM) | 12.5 to 150 (≈ 31.4 to 376 µM) | 12.5 to 150 (≈ 31.4 to 376 µM) |
| CCCc1c(-c2ccc3c(c2)cc(CN(C)C)n3C)[nH]c(=O)c(C(=O)O)c1O [Cpd 340, 6-(2-((dimethylamino)methyl)-1-methyl-1H-indol-5-yl)-4-hydroxy-2-oxo-5-propyl-1,2-dihydropyridine-3-carboxylic acid] | 12.5 to 150 (≈ 32.6 to 391 µM) | 3.5 to 12.5 (≈ 9.13 to 32.6 µM) | 3.5 to 12.5 (≈ 9.13 to 32.6 µM) | 12.5 to 150 (≈ 32.6 to 391 µM) | 12.5 to 150 (≈ 32.6 to 391 µM) | < 1 | 3.5 to 12.5 (≈ 9.13 to 32.6 µM) | 12.5 to 150 (≈ 32.6 to 391 µM) | 3.5 to 12.5 (≈ 9.13 to 32.6 µM) |
| CCc1c(-c2ccc3c(c2)cc2n3C[C@H](CN)[C@@H]2NC)[nH]c(=O)c(C(=O)O)c1O.Cl.Cl (relative stereo) [Cpd 421, 6-(cis-2-(aminomethyl)-1-(methylamino)-2,3-dihydro-1H-pyrrolo[1,2-a]indol-7-yl)-5-ethyl-4-hydroxy-2-oxo-1,2-dihydropyridine-3-carboxylic acid bis-hydrochloride] | 12.5 to 150 | 3.5 to 12.5 | 12.5 to 150 | 12.5 to 150 | 12.5 to 150 | 1 to 3.5 | 12.5 to 150 | 12.5 to 150 | 12.5 to 150 |
| CCc1c(-c2ccc3cn(C)nc3c2)[nH]c(=O)c(C(=O)O)c1O [Cpd 389, 5-ethyl-4-hydroxy-6-(2-methyl-2H-indazol-6-yl)-2-oxo-1,2-dihydropyridine-3-carboxylic acid] | 12.5 to 150 (≈ 39.9 to 479 µM) | 12.5 to 150 (≈ 39.9 to 479 µM) | 3.5 to 12.5 (≈ 11.2 to 39.9 µM) | 12.5 to 150 (≈ 39.9 to 479 µM) | 12.5 to 150 (≈ 39.9 to 479 µM) | 3.5 to 12.5 (≈ 11.2 to 39.9 µM) | 3.5 to 12.5 (≈ 11.2 to 39.9 µM) | 12.5 to 150 (≈ 39.9 to 479 µM) | 12.5 to 150 (≈ 39.9 to 479 µM) |

— US9409905B2, “Antibacterial compounds and methods for use” (PTC THERAPEUTICS, INC., priority 2011, dated 2016)
